Data taken from the supplement of paper PMC10307832.

Legend:
Assay in all cases: relative viability (nuclei count vs DMSO), 5 days (fraction); higher = more cells survive
[1] = compound: COc1cc2ncn(-c3cc(OCc4ccccc4C(F)(F)F)c(C(N)=O)s3)c2cc1OC
Method in brief: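 Acceptance criteria were a control CV below 25% and at least one doubling per plate. Lung cancer cell lines in 1536-well plates got five library-drug doses (not always all listed) √10 apart by pinning and were left 5 days with no medium change. Viability divides treated-well nuclei by vehicle-well nuclei and is the median across plates. Nuclei were counted by MetaXpress from 4× Hoechst images.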

[2] = compound: COc1cc2ncn(-c3cc(OCc4ccccc4C(F)(F)F)c(C(N)=O)s3)c2cc1OC + CC(C)C[C@H](NC(=O)[C@H](Cc1ccccc1)NC(=O)c1cnccn1)B(O)O [Bortezomib] (partner 0.002 µM)
Method in brief: (§1)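 One day after seeding in 1536-well plates, lung cancer cell lines were dosed by pin tool. Dosing was either single-drug or a fixed anchor-drug dose plus five library-drug doses (not always all listed) in √10 steps. After 5 days, nuclei were stained in one fix-and-stain step and counted on 4× images, and relative viability is the nuclei count of treated wells over that of vehicle wells, given as the median of duplicate plates.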

[3] = compound: COc1cc2ncn(-c3cc(OCc4ccccc4C(F)(F)F)c(C(N)=O)s3)c2cc1OC + CC1(C)CCC(c2ccc(Cl)cc2)=C(CN2CCN(c3ccc(C(=O)NS(=O)(=O)c4ccc(N[C@H](CCN5CCOCC5)CSc5ccccc5)c(S(=O)(=O)C(F)(F)F)c4)cc3)CC2)C1 [Navitoclax] (partner 0.5 µM)
Method in brief: as §1

[4] = compound: COc1cc2ncn(-c3cc(OCc4ccccc4C(F)(F)F)c(C(N)=O)s3)c2cc1OC + COc1cc2c(Oc3ccc(NC(=O)C4(C(=O)Nc5ccc(F)cc5)CC4)cc3F)ccnc2cc1OCCCN1CCOCC1 [Foretinib] (partner 0.25 µM)
Method in brief: as §1

[5] = compound: COc1cc2ncn(-c3cc(OCc4ccccc4C(F)(F)F)c(C(N)=O)s3)c2cc1OC + CS(=O)(=O)CCNCc1ccc(-c2ccc3ncnc(Nc4ccc(OCc5cccc(F)c5)c(Cl)c4)c3c2)o1 [Lapatinib] (partner 2 µM)
Method in brief: as §1

[6] = compound: COc1cc2ncn(-c3cc(OCc4ccccc4C(F)(F)F)c(C(N)=O)s3)c2cc1OC + CS(=O)(=O)N1CCN(Cc2cc3nc(-c4cccc5[nH]ncc45)nc(N4CCOCC4)c3s2)CC1 [Pictilisib] (partner 1 µM)
Method in brief: as §1

[7] = compound: COc1cc2ncn(-c3cc(OCc4ccccc4C(F)(F)F)c(C(N)=O)s3)c2cc1OC + C[C@@H](Oc1cc(-c2cnn(C3CCNCC3)c2)cnc1N)c1c(Cl)ccc(F)c1Cl [Crizotinib] (partner 1 µM)
Method in brief: as §1

[8] = compound: COc1cc2ncn(-c3cc(OCc4ccccc4C(F)(F)F)c(C(N)=O)s3)c2cc1OC + C[C@]1(O)C[C@@H](c2nc(-c3ccc4ccc(-c5ccccc5)nc4c3)c3c(N)nccn32)C1 [Linsitinib] (partner 1 µM)
Method in brief: as §1

[9] = compound: COc1cc2ncn(-c3cc(OCc4ccccc4C(F)(F)F)c(C(N)=O)s3)c2cc1OC + Cc1nc(NC(=O)N2CCC[C@H]2C(N)=O)sc1-c1ccnc(C(C)(C)C(F)(F)F)c1 [Alpelisib] (partner 2 µM)
Method in brief: as §1

[10] = compound: COc1cc2ncn(-c3cc(OCc4ccccc4C(F)(F)F)c(C(N)=O)s3)c2cc1OC + O=C(c1cc(Cc2n[nH]c(=O)c3ccccc23)ccc1F)N1CCN(C(=O)C2CC2)CC1 [Olaparib] (partner 8 µM)
Method in brief: as §1

[11] = compound: COc1cc2ncn(-c3cc(OCc4ccccc4C(F)(F)F)c(C(N)=O)s3)c2cc1OC + CCNC(=O)c1noc(-c2cc(C(C)C)c(O)cc2O)c1-c1ccc(CN2CCOCC2)cc1 [Luminespib] (partner 0.01 µM)
Method in brief: as §1

[12] = compound: COc1cc2ncn(-c3cc(OCc4ccccc4C(F)(F)F)c(C(N)=O)s3)c2cc1OC + COc1cccc2cc(-c3nc([C@H]4CC[C@H](C(=O)O)CC4)n4ncnc(N)c34)[nH]c12 [OSI-027] (partner 0.5 µM)
Method in brief: as §1

[13] = compound: COc1cc2ncn(-c3cc(OCc4ccccc4C(F)(F)F)c(C(N)=O)s3)c2cc1OC + Cc1cc(Nc2cc(N3CCN(C)CC3)nc(Sc3ccc(NC(=O)C4CC4)cc3)n2)n[nH]1 [Tozasertib] (partner 0.1 µM)
Method in brief: as §1

[14] = compound: COc1cc2ncn(-c3cc(OCc4ccccc4C(F)(F)F)c(C(N)=O)s3)c2cc1OC + Cc1nc(Nc2ncc(C(=O)Nc3c(C)cccc3Cl)s2)cc(N2CCN(CCO)CC2)n1 [Dasatinib] (partner 0.075 µM)
Method in brief: as §1

[15] = compound: COc1cc2ncn(-c3cc(OCc4ccccc4C(F)(F)F)c(C(N)=O)s3)c2cc1OC + N=C(N)NC(=N)NCCc1ccccc1 [Phenformin] (partner 250 µM)
Method in brief: as §1

## Calu-6
[1]; 0.05 µM
  relative viability: 0.956
[1]; 0.1581 µM
  relative viability: 0.835
[1]; 0.5 µM
  relative viability: 0.268
[1]; 1.581 µM
  relative viability: 0.117
[1]; 5 µM
  relative viability: 0.11
[2]; first compound 0.05 µM
  relative viability: 0.805
[2]; first compound 0.1581 µM
  relative viability: 0.69
[2]; first compound 0.5 µM
  relative viability: 0.203
[2]; first compound 1.581 µM
  relative viability: 0.116
[2]; first compound 5 µM
  relative viability: 0.117
[3]; first compound 0.05 µM
  relative viability: 0.693
[3]; first compound 0.1581 µM
  relative viability: 0.513
[3]; first compound 0.5 µM
  relative viability: 0.136
[3]; first compound 1.581 µM
  relative viability: 0.0798
[3]; first compound 5 µM
  relative viability: 0.0903
[4]; first compound 0.05 µM
  relative viability: 0.791
[4]; first compound 0.1581 µM
  relative viability: 0.612
[4]; first compound 0.5 µM
  relative viability: 0.203
[4]; first compound 1.581 µM
  relative viability: 0.0691
[4]; first compound 5 µM
  relative viability: 0.0725
[5]; first compound 0.05 µM
  relative viability: 1.02
[5]; first compound 0.1581 µM
  relative viability: 0.872
[5]; first compound 0.5 µM
  relative viability: 0.315
[5]; first compound 1.581 µM
  relative viability: 0.129
[5]; first compound 5 µM
  relative viability: 0.128
[6]; first compound 0.05 µM
  relative viability: 0.821
[6]; first compound 0.1581 µM
  relative viability: 0.735
[6]; first compound 0.5 µM
  relative viability: 0.221
[6]; first compound 1.581 µM
  relative viability: 0.0967
[6]; first compound 5 µM
  relative viability: 0.102
[7]; first compound 0.05 µM
  relative viability: 0.778
[7]; first compound 0.1581 µM
  relative viability: 0.755
[7]; first compound 0.5 µM
  relative viability: 0.288
[7]; first compound 1.581 µM
  relative viability: 0.107
[7]; first compound 5 µM
  relative viability: 0.106
[8]; first compound 0.05 µM
  relative viability: 0.976
[8]; first compound 0.1581 µM
  relative viability: 0.843
[8]; first compound 0.5 µM
  relative viability: 0.257
[8]; first compound 1.581 µM
  relative viability: 0.0961
[8]; first compound 5 µM
  relative viability: 0.0852
[9]; first compound 0.05 µM
  relative viability: 0.92
[9]; first compound 0.1581 µM
  relative viability: 0.67
[9]; first compound 0.5 µM
  relative viability: 0.23
[9]; first compound 1.581 µM
  relative viability: 0.128
[9]; first compound 5 µM
  relative viability: 0.112
[10]; first compound 0.05 µM
  relative viability: 0.541
[10]; first compound 0.1581 µM
  relative viability: 0.454
[10]; first compound 0.5 µM
  relative viability: 0.172
[10]; first compound 1.581 µM
  relative viability: 0.086
[10]; first compound 5 µM
  relative viability: 0.0935

## NCI-H1623
[1]; 0.05 µM
  relative viability: 0.962
[1]; 0.1581 µM
  relative viability: 0.975
[1]; 0.5 µM
  relative viability: 0.694
[1]; 1.581 µM
  relative viability: 0.439
[1]; 5 µM
  relative viability: 0.758
[11]; first compound 0.05 µM
  relative viability: 0.49
[11]; first compound 0.1581 µM
  relative viability: 0.485
[11]; first compound 0.5 µM
  relative viability: 0.435
[11]; first compound 5 µM
  relative viability: 0.37
[4]; first compound 0.05 µM
  relative viability: 0.824
[4]; first compound 0.1581 µM
  relative viability: 0.723
[4]; first compound 0.5 µM
  relative viability: 0.62
[4]; first compound 1.581 µM
  relative viability: 0.426
[4]; first compound 5 µM
  relative viability: 0.694
[12]; first compound 0.05 µM
  relative viability: 0.478
[12]; first compound 0.1581 µM
  relative viability: 0.429
[12]; first compound 0.5 µM
  relative viability: 0.376
[12]; first compound 1.581 µM
  relative viability: 0.281
[12]; first compound 5 µM
  relative viability: 0.349
[13]; first compound 0.05 µM
  relative viability: 0.438
[13]; first compound 0.1581 µM
  relative viability: 0.382
[13]; first compound 0.5 µM
  relative viability: 0.386
[13]; first compound 5 µM
  relative viability: 0.399
[14]; first compound 0.05 µM
  relative viability: 0.525
[14]; first compound 0.1581 µM
  relative viability: 0.447
[14]; first compound 0.5 µM
  relative viability: 0.508
[14]; first compound 5 µM
  relative viability: 0.557
[15]; first compound 0.05 µM
  relative viability: 0.588
[15]; first compound 0.1581 µM
  relative viability: 0.395
[15]; first compound 0.5 µM
  relative viability: 0.463
[15]; first compound 5 µM
  relative viability: 0.576
